Results reported in patent publication US20210145801A1, “THERAPY FOR PROTEIN MISFOLDING DISEASE” (WREN THERAPEUTICS LIMITED, priority 2018, published 2021).
Entries after “also recorded” stand apart in the source; their conditions may differ.

Assays:
Aβ42 = biological target: T1, Aβ42 (Homo sapiens, UniProt P05067); test: ThT kinetic assay of Aβ42 aggregation (unseeded); format: biochemical
T1 construct: made in house; host or cells: E. coli BL21 Gold (DE3)
From the text: The recombinant Aβ(M1-42) peptide ([…]-SNKGAIIGLMVGGVVIA [SEQ ID NO: 1]), here called Aβ42, was expressed in the E. coli BL21 Gold (DE3) strain (Stratagene, Calif., U.S.A.) and purified as described previously with slight modifications. Briefly, the purification procedure involved sonication of E. coli cells, dissolution of inclusion bodies in 8 M urea, and ion exchange in batch mode on diethylaminoethyl cellulose resin and lyophylization. The lyophilized fractions were further purified using Superdex 75 HR 26/60 column (GE Healthcare, Buckinghamshire, U.K.) and eluates were analyzed using SDS-PAGE for the presence of the desired protein product. The fractions containing the recombinant protein were combined, frozen using liquid nitrogen, and lyophilized again.
Except for Netoglitazone, which was custom synthesised by GVK BIO, all small molecules were purchased with a purity greater than 99%. Small molecules were first solubilized in 100% DMSO to a concentration of 5 mM, and then diluted in the peptide solution to reach a final DMSO concentration of maximum 1-3%. We verified that the addition of DMSO in the reaction mixture has no effect on Aβ42 aggregation.
Solutions of monomeric peptides were prepared by dissolving the lyophilized Aβ42 peptide in 6 M GuHCl. Monomeric forms were purified from potential oligomeric species and salt using a Superdex 75 10/300 GL column (GE Healthcare) at a flowrate of 0.5 mL/min, and were eluted in 20 mM sodium phosphate buffer, pH 8 supplemented with 200 μM EDTA and 0.02% NaN3. The centre of the peak was collected, and the peptide concentration was determined from the absorbance of the integrated peak area using ε280=1490 L mol^−1 cm^−1. The obtained monomer was diluted with buffer to the desired concentration and supplemented with 20 μM Thioflavin T (ThT) from a 1 mM stock. All samples were prepared in low binding Eppendorf tubes on ice using careful pipetting to avoid introduction of air bubbles. Each sample was then pipetted into multiple wells of a 96-well half-area, low-binding, clear bottom and PEG coating plate (Corning 3881), 80 μL per well. Aβ42 kinetics have been performed in the absence or the presence of Netoglitazone, Mitoglitazone, Rosiglotazone, Rivoglitazone, Pioglitazone, Ciglitazone, Englitazone, Darglitazone, Troglitazone and Balaglitazone.
The time evolution of the total fibril mass concentration is described as a function only of the initial conditions and the rate constants of the system by the integrated rate law given by Eq. (54) in Cohen et al., J Chem Phys 135, 065106, 2011.
These are related to the rate of formation of new aggregates through primary pathways λ=√{square root over (2k+knm(0)^n^c)} and through secondary pathways κ=√{square root over (2k+k2m(0)^n^2^+1)}, where the initial concentration of soluble monomers is denoted by m(0), nc and n2 describe the dependencies of the primary and secondary pathways on the monomer concentration (nc=n2=2 for Aβ42), and kn, k+ and k2 are the rate constants of the primary nucleation, elongation and secondary nucleation, respectively (Cohen et al., Proc Natl Acad Sci USA, 110(24), 9758-63, 2013).
Inhibitors can interfere with the aggregation process by inhibiting one or more of the individual microscopic steps.

Aβ42 oligomers = biological target: T2, Aβ42 oligomers (Homo sapiens, UniProt P05067); test: Ca2+ influx assay (lipid vesicle disruption); format: biochemical; conditions: 2 μM Aβ42; 5-fold excess added at 0 h; measured at 2 h (half-time)
T2 construct: made in house; host or cells: E. coli BL21 Gold (DE3)
Method: Single vesicles tethered to PLL-PEG coated borosilicate glass coverslides (VWR International, 22×22 mm, product number 63 1-0122) were placed on an oil immersion objective mounted on an inverted Olympus IX-71 microscope. Each coverslide was affixed at Frame-Seal incubation chambers and was incubated with 50 μL of HEPES buffer of pH 6.5. Just before the imaging, the HEPES buffer was replaced with 50 μL Ca^2+ containing buffer solution L-15. 16 (4×4) images of the coverslide were recorded under three different conditions (background, in the presence of Aβ42 and after addition of ionomycin (Cambridge Bioscience Ltd, Cambridge, UK), respectively). The distance between each field of view was set to 100 μm, and was automated (bean-shell script, Micromanager) to avoid any user bias. After each measurement the script allowed the stage (Prior H117, Rockland, Mass., USA) to move the field of view back to the start position such that identical fields of view could be acquired for the three different conditions. Images of the background were acquired in the presence of L15 buffer. For each field of view 50 images were taken with an exposure time of 50 ms. […] The recorded images were analysed using ImageJ to determine the fluorescence intensity of each spot under the three different conditions in the presence of an aggregation mixture incubated with and without Netoglitazone.

[1] = system: Aβ3-42::GFPMuscular worms (CL2331); test: Automated motility assay in Aβ3-42::GFPMuscular worms; format: in vivo, C. elegans; conditions: vs untreated worms
Method: CL2331; dvIs37 [myo-3p::GFP::A-Beta (3-42)+rol-6(su1006)] (Aβ3-42::GFPMuscular worms). Maintain at 16C. Roller. Diffuse and aggregated GFP expression in body wall muscle. Low brood size. Sicker at higher temperatures. (C. D. Link et al., The β amyloid peptide can act as a modular aggregation domain. Neurobiol. Dis. 32, 420-425 (2008)); and
Briefly, Netoglitazone stocks (5 mM in 100% DMSO) were used at an appropriate concentration to seed 9-cm NGM plates. Plates were then placed in a laminar flow hood at room temperature (22° C.) for up to 4 hours to dry. […]
All C. elegans populations were cultured at 20° C. and developmentally synchronized from a 4 h egg-lay. At 64-72 h post-egg-lay (time zero), individuals were transferred to FUDR plates, and body movements were assessed over the times indicated. At different ages, the animals were washed off the plates with M9 buffer and spread over an OP-50 unseeded 9 cm plate, after which their movements were recorded at 20 fps using a recently developed microscopic procedure (M. Perni et al., Massively parallel C. elegans tracking provides multi-dimensional fingerprints for phenotypic discovery. J. Neurosci. Methods. 306, 57-67 (2018)) for 1 min. Up to 600 animals were counted in each experiment in duplicate unless stated otherwise. […]

T1 sequence (P05067 671-713): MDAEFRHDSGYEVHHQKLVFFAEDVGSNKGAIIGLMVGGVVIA
T2 sequence (P05067 671-713): as above

`O=C1NC(=O)C(Cc2ccc3cc(OCc4ccccc4F)ccc3c2)S1` (stereo not shown) [Netoglitazone] was tested, and the “Effect on rate constants of primary (knk+) and secondary (k2k+) pathways” value (Aβ42; 2 μM Aβ42, unseeded, fit of rate laws) was “can affect both nucleation pathways in Aβ42 aggregation to different extents”, the “Delay of Aβ42 aggregation (ThT fibril formation)” value (Aβ42; 2 μM Aβ42, range of Netoglitazone concentrations) was “substantial delay in Aβ42 aggregation was observed in a concentration-dependent manner” and the “Protection against lipid vesicle disruption by Aβ42 oligomers (Ca2+ influx)” value (Aβ42 oligomers) was “protected against the neurotoxic species-induced vesicle disruption; also recorded: decreased substantially the toxic effect”. For the same compound, the “Motility of Aβ3-42::GFPMuscular worms” value [1] was “significantly improves the motility of Aβ3-42::GFPMuscular worms”.
